Laboratory results taken from patent publication US20200069644A1, “NOVEL USE OF A FORMYL PEPTIDE RECEPTOR 2/ LIPOXIN A4 RECEPTOR (FPR2/ALX) AGONIST FOR TREATMENT OF HEART FAILURE” (BRISTOL- MYERS SQUIBB COMPANY, priority 2017, published 2020).
pEC50, pIC50: −log10 of the molar value.

Columns and labels:
[1] = tested on: HL-60 cell line; assay: HL-60 cell migration assay, antagonist mode (SAA-stimulated chemotaxis); format: cell-based; settings: Homo sapiens; HL-60 cells; read-out: IC50, antagonism of chemotaxis stimulated by SAA
Protocol: The HL-60 cell line (ATCC, CCL-240, lot 60398411) was maintained in IMDM (Life Tech, cat 12440-053) medium supplemented with 20% fetal bovine serum, 50 U/ml penicillin, and 50 μg/ml streptomycin at 37° with 5% CO2. Cells were differentiated into the granulocyte lineage with DMSO; 2.5×10^5 cells/ml were incubated with 1.25% DMSO for 5 days.
After 5 day differentiation, the cells were resuspended in phenol free RPMI (Invitrogen, cat 11835) with 0.2% fatty acid free BSA at a concentration of […]. The dHL-60 cells (10^5 in 100 μl) were pre-incubated for 15 minutes with varying concentrations of the […] at 37° with 5% CO2. Then 0.8 μM of the recombinant serum amyloid A1 peptide (rSAA1, PeproTech, Cat #300-53) was added to the bottom chamber of each HTS transwell-96 well plate (Corning #3387). Migration was induced by placing […] and the dHL60 cells mixture in the top chamber of the transwell plate. Cells were allowed to migrate for 120 min across the 5 micron filters at 37° C. with 5% CO2. Following migration, neutrophils or dHL-60 cells remaining in the transwell lower chamber (migrated fraction) were quantitated using the cell-titer-glo luminescence cell viability assay (Promega, G7571). […]

[2] = tested on: Mouse peritoneal macrophages; assay: Enhancement of phagocytosis of FITC zymosan; format: cell-based; settings: Peritoneal macrophage; mouse peritoneal macrophages elicited with 1% Biogel; read-out: EC50, enhancement of phagocytosis of fluorescently labeled zymosan
Protocol: Enhancement of phagocytosis Macrophages were elicited to the peritoneum of five C57BL6 mice by peritoneal injection of 1 mL of 1% Biogel in PBS (−/−) 4 days prior to harvest. Peritoneal exudates are harvested, combined and then filtered to remove Biogel beads. First, through a 70 um cell strainer followed by successively filtering through two 40 um cell strainers. The exudate is diluted with 1×PBS (−/−) to 50 mL and centrifuged at 300×g for 10 minutes at 4° C. The cell pellet is gently resuspended in 20-30 mL 1×PBS(+/+) and cells are counted using the Nexelcom Cellometer counter. Cell concentration is adjusted to 1,250,000 cells/mL in 1×PBS (+/+). 100 μL (125 k) cells are placed into each well of a 96-well Costar 3904 plate. The plates are centrifuged at 150×g for 30 seconds to promote adherence. […] Fluorescence signal from non-ingested Zymosan particles is quenched with 150 uL ice-cold 1:15 diluted Trypan Blue solution for 2 minutes and then aspirated to remove. Lastly, the plate is read on a SpectraMAX Gemini EM fluorescence plate reader in 150 ul of 1:50 diluted Trypan Blue. Plate Reader Settings=Bottom Read: Excitation 493 nm: Emission 525 nm: Cutoff 515 nm: Automix Off: Calibrate On: PMT=Auto: Column Priority: Reads/Well=20. […]

[3] = tested on: ischemia-reperfusion myocardial infarction in rats; assay: Rat model of ischemia-reperfusion myocardial infarction, 6 weeks; format: in vivo
Protocol: In a third model of myocardial infarction, transient coronary artery occlusion followed by reperfusion was carried out in rats to induce myocardial infarction and to assess salvage of myocardium within the area at risk of myocardial infarction. Treatment with orally-administered Compound 1 (0.01, 0.1, 1, and 10 mg/kg, QD) or dosing solution without compound (QD, referred to as vehicle) was initiated 48 hours following myocardial infarction. Rats subjected to thoracotomy but not infarcted were included as surgical “sham” controls. Rats were evaluated 6 weeks following myocardial infarction to assess structure/function relationships. Hearts were removed from rats for histological processing to the extent of myocardial salvage with Compound 1 treatment. The pressure-volume conductance catheter technique was used to evaluate cardiac function.
The effects of Compound 1 on left ventricle and infarct scar remodeling were evaluated in a rat model of ischemia-reperfusion myocardial infarction. Treatments were initiated 48 hr after MI and were continued for 6 weeks. MI was created by transient ligation the left anterior descending artery with a surgical suture for 1 hour followed by reperfusion. Treatments consisted of a suspension vehicle, Compound 1 at 0.01, 0.1, 1 and 10 mg/kg. At the end of 6 weeks of treatment, hearts were removed for histological evaluation of left ventricle structure and scar structure. This is a model of ischemic heart disease.
In addition, the effect of Compound 1 on cardiac function was measured by the pressure-volume conductance catheter technique to assess structure/function relationships. The structure of the infarct wall was measured histologically to determine the extent of myocardial infarction and myocardial tissue salvage. In this model, blood reperfusion to the site of ischemia is designed to salvage myocardium within the area at risk of myocardial infarction. However, in this model, there is potential for additional insult to tissue caused by reperfusion that can stimulate added myocardial necrosis. Therefore, measurement of myocardial salvage within the myocardial infarct zone is an important endpoint in this model. […] Preservation of viable myocardium was obtained at the 0.1, 1 and 10 mg/kg doses (31-41% preservation relative to vehicle, *P<0.05, **P<0.01, ***P<0.001).
A pressure-volume conductance catheter was used to measure left ventricular ejection fraction at the end of the treatment phase. The fraction of blood pumped out of the left ventricle was measured per contraction cycle (i.e., ejection fraction) and was used to assess overall cardiac function following 6 weeks of treatment. […]

Structure (SMILES): COc1cc(F)c([C@@H]2CNC(=O)[C@H]2NC(=O)Nc2ccccc2)c(F)c1 [Compound 1, 1-((3S,4R)-4-(2,6-difluoro-4-methoxyphenyl)-2-oxopyrrolidin-3-yl)-3-phenylurea]
- pIC50 [1]: 7.24
- pEC50 [2]: 8.70
- improvement in left ventricular ejection fraction vs. vehicle (pressure-volume conductance catheter) ([3]; 0.01 mg/kg PO QD, P<0.05): 37%
- improvement in left ventricular ejection fraction vs. vehicle (pressure-volume conductance catheter) ([3]; 1 mg/kg PO QD, P<0.01): 51%
- preservation of viable myocardium across infarct wall relative to vehicle ([3]; 0.1, 1 and 10 mg/kg PO QD): 31-41%
- left ventricular ejection fraction vs. vehicle (pressure-volume conductance catheter) ([3]; other doses (0.1 and 10 mg/kg)): trend towards improved ejection fraction
